# Patent US20020051978A1, “Methods and compositions for the identification, assessment, prevention and therapy of human cancers” (priority 2000, published 2002)
# Like-named read-outs stand apart in the source and are kept apart here.
# Key:
# [1] = test system: 60 cancer cell lines (NCI 60 cancer cell line series); test: NCI-DTP in vitro cancer screen, sulforhodamine B (SRB) growth inhibition, 48 hour exposure; assay type: cell-based, human; parameters: key to sensitivity class Ovarian OVCAR-8 CL6005 / sensitivity class Ovarian SK-OV-3 CL6011 / sensitivity class Prostate DU-145 CL11003 / sensitivity class NSCLC NCI-H522 CL1003 / sensitivity class Ovarian IGROV1 CL6010 / sensitivity class Ovarian OVCAR-4 CL6002 / sensitivity class Prostate PC-3(I) CL11001 / sensitivity class Renal A498 CL9013 / sensitivity class Renal SN12C CL9008: sensitivity class: 1 = Low, 2 = Medium, 3 = High
# Summary of the method: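 Sixty NCI-DTP cancer lines plated at line-specific densities, dosed on day 1 in duplicate with 5 concentrations at ten-fold intervals. After 48 h exposure, cell mass read by SRB staining; GI50 (50% growth inhibition) taken from dose-response curves and expressed as -log GI50.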
# [2] = test system: 60 cancer cell lines (NCI 60 cancer cell line series); conditions: cited from earlier work
smiles,measurement,setting,value
COc1cc([C@@H]2c3cc4c(cc3[C@@H](O[C@@H]3O[C@@H]5CO[C@@H](c6cccs6)O[C@H]5[C@H](O)[C@H]3O)[C@H]3COC(=O)[C@H]23)OCO4)cc(OC)c1O [Teniposide],"classification of cell line as Low(1), Medium(2) or High(3) sensitivity to compound",[1]; Breast BT-549 (CL5013),2
same,"classification of cell line as Low(1), Medium(2) or High(3) sensitivity to compound",[1]; Breast HS-578T CL5006,2
same,"classification of cell line as Low(1), Medium(2) or High(3) sensitivity to compound",[1]; Breast MCF7(I) (CL5001),3
same,"classification of cell line as Low(1), Medium(2) or High(3) sensitivity to compound",[1]; Breast MCF7/ADRr (CL5002),1
same,"classification of cell line as Low(1), Medium(2) or High(3) sensitivity to compound",[1]; Breast MDA-MB-231 CL5005,2
same,"classification of cell line as Low(1), Medium(2) or High(3) sensitivity to compound",[1]; Breast MDA-MB-435 (CL5011),2
same,"classification of cell line as Low(1), Medium(2) or High(3) sensitivity to compound",[1]; Breast MDA-N CL5012,2
same,"classification of cell line as Low(1), Medium(2) or High(3) sensitivity to compound",[1]; Breast T-47D (CL5014),2
same,"classification of cell line as Low(1), Medium(2) or High(3) sensitivity to compound",[1]; CNS SF-268 CL12014,2
same,"classification of cell line as Low(1), Medium(2) or High(3) sensitivity to compound",[1]; CNS SF-295 CL12015,2
same,"classification of cell line as Low(1), Medium(2) or High(3) sensitivity to compound",[1]; CNS SF-539 CL12016,2
same,"classification of cell line as Low(1), Medium(2) or High(3) sensitivity to compound",[1]; CNS SNB-19 (CL12002),2
same,"classification of cell line as Low(1), Medium(2) or High(3) sensitivity to compound",[1]; CNS SNB-75(I) CL12005,2
same,"classification of cell line as Low(1), Medium(2) or High(3) sensitivity to compound",[1]; CNS U251(I) CL12009,2
same,"classification of cell line as Low(1), Medium(2) or High(3) sensitivity to compound",[1]; Colon COLO-250 CL4010,2
same,"classification of cell line as Low(1), Medium(2) or High(3) sensitivity to compound",[1]; Colon HCC-2998 (CL4002),2
same,"classification of cell line as Low(1), Medium(2) or High(3) sensitivity to compound",[1]; Colon HCT-15 CL4015,2
same,"classification of cell line as Low(1), Medium(2) or High(3) sensitivity to compound",[1]; Colon HCT-116 (CL4003),2
same,"classification of cell line as Low(1), Medium(2) or High(3) sensitivity to compound",[1]; Colon HT29(I) CL4001,2
same,"classification of cell line as Low(1), Medium(2) or High(3) sensitivity to compound",[1]; Colon KM12 (CL4017),2
same,"classification of cell line as Low(1), Medium(2) or High(3) sensitivity to compound",[1]; Colon SW-620 (CL4009),2
same,"classification of cell line as Low(1), Medium(2) or High(3) sensitivity to compound",[1]; Leukemia CCRF-CEM(I) (CL7003),3
same,"classification of cell line as Low(1), Medium(2) or High(3) sensitivity to compound",[1]; Leukemia HL-60(I) (CL7008),3
same,"classification of cell line as Low(1), Medium(2) or High(3) sensitivity to compound",[1]; Leukemia K562(I) CL7005,2
same,"classification of cell line as Low(1), Medium(2) or High(3) sensitivity to compound",[1]; Leukemia MOLT-4 (CL7006),3
same,"classification of cell line as Low(1), Medium(2) or High(3) sensitivity to compound",[1]; Leukemia RPMI-8226(I) (CL7010),2
same,"classification of cell line as Low(1), Medium(2) or High(3) sensitivity to compound",[1]; Leukemia SR CL7019,3
same,"classification of cell line as Low(1), Medium(2) or High(3) sensitivity to compound",[1]; Melanoma LOX IMVI CL10001,2
same,"classification of cell line as Low(1), Medium(2) or High(3) sensitivity to compound",[1]; Melanoma M14 (CL10014),2
same,"classification of cell line as Low(1), Medium(2) or High(3) sensitivity to compound",[1]; Melanoma MALME-3M CL10002,2
same,sensitivity class NSCLC NCI-H23(I) CL1001,"[1]; cell line NSCLC NCI-H23(I), CL1001",2
same,sensitivity class NSCLC NCI-H332M CL1017,"[1]; cell line NSCLC NCI-H332M, CL1017",1
same,sensitivity class NSCLC NCI-H460 CL1021,"[1]; cell line NSCLC NCI-H460, CL1021",3
same,sensitivity class NSCLC NCI-H522 CL1003,"[1]; cell line NSCLC NCI-H522, CL1003",2
same,sensitivity class Ovarian IGROV1 CL6010,"[1]; cell line Ovarian IGROV1, CL6010",2
same,sensitivity class Ovarian OVCAR-3 CL6001,"[1]; cell line Ovarian OVCAR-3, CL6001",2
same,sensitivity class Ovarian OVCAR-4 CL6002,"[1]; cell line Ovarian OVCAR-4, CL6002",1
same,sensitivity class Ovarian OVCAR-5 CL6003,"[1]; cell line Ovarian OVCAR-5, CL6003",2
same,sensitivity class Ovarian OVCAR-8 CL6005,"[1]; cell line Ovarian OVCAR-8, CL6005",2
same,sensitivity class Ovarian SK-OV-3 CL6011,"[1]; cell line Ovarian SK-OV-3, CL6011",2
same,sensitivity class Prostate DU-145 CL11003,"[1]; cell line Prostate DU-145, CL11003",2
same,sensitivity class Prostate PC-3(I) CL11001,"[1]; cell line Prostate PC-3(I), CL11001",2
same,sensitivity class Renal 786-O CL9018,"[1]; cell line Renal 786-O, CL9018",2
same,sensitivity class Renal A498 CL9013,"[1]; cell line Renal A498, CL9013",2
same,sensitivity class Renal ACHN CL9023,"[1]; cell line Renal ACHN, CL9023",2
same,sensitivity class Renal CAKI-1 CL9015,"[1]; cell line Renal CAKI-1, CL9015",3
same,sensitivity class Renal RXF-393 CL9016,"[1]; cell line Renal RXF-393, CL9016",2
same,sensitivity class Renal SN12C CL9008,"[1]; cell line Renal SN12C, CL9008",2
same,sensitivity class Renal TK10 CL9024,"[1]; cell line Renal TK10, CL9024",2
same,sensitivity class Renal UO-31 CL9004,"[1]; cell line Renal UO-31, CL9004",1
same,-Log (GI50),[2]; Breast BT-549 (CL5013),6.2
same,-Log (GI50),[2]; Breast HS-578T CL5006,6.4
same,-Log (GI50),[2]; Breast MCF7(I) (CL5001),7.4
same,-Log (GI50),[2]; Breast MCF7/ADRr (CL5002),4.6
same,-Log (GI50),[2]; Breast MDA-MB-231 CL5005,6.0
same,-Log (GI50),[2]; Breast MDA-MB-435 (CL5011),5.9
same,-Log (GI50),[2]; Breast MDA-N CL5012,6.0
same,-Log (GI50),[2]; Breast T-47D (CL5014),6.8
same,-Log (GI50),[2]; CNS SF-268 CL12014,6.3
same,-Log (GI50),[2]; CNS SF-295 CL12015,6.8
same,-Log (GI50),[2]; CNS SF-539 CL12016,6.7
same,-Log (GI50),[2]; CNS SNB-19 (CL12002),6.5
same,-Log (GI50),[2]; CNS SNB-75(I) CL12005,6.3
same,-Log (GI50),[2]; CNS U251(I) CL12009,6.8
same,-Log (GI50),[2]; Colon COLO-250 CL4010,6.3
same,-Log (GI50),[2]; Colon HCC-2998 (CL4002),6.2
same,-Log (GI50),[2]; Colon HCT-15 CL4015,5.8
same,-Log (GI50),[2]; Colon HCT-116 (CL4003),6.1
same,-Log (GI50),[2]; Colon HT29(I) CL4001,5.8
same,-Log (GI50),[2]; Colon KM12 (CL4017),6.1
same,-Log (GI50),[2]; Colon SW-620 (CL4009),6.6
same,-Log (GI50),[2]; Leukemia CCRF-CEM(I) (CL7003),7.3
same,-Log (GI50),[2]; Leukemia HL-60(I) (CL7008),7.3
same,-Log (GI50),[2]; Leukemia K562(I) CL7005,6.1
same,-Log (GI50),[2]; Leukemia MOLT-4 (CL7006),7.8
same,-Log (GI50),[2]; Leukemia RPMI-8226(I) (CL7010),6.8
same,-Log (GI50),[2]; Leukemia SR CL7019,7.9
same,-Log (GI50),[2]; Melanoma LOX IMVI CL10001,6.7
same,-Log (GI50),[2]; Melanoma M14 (CL10014),6.2
same,-Log (GI50),[2]; Melanoma MALME-3M CL10002,6.2
same,-Log (GI50),[2]; NCSLC NCI-H522 CL1003,6.3
same,-Log (GI50),[2]; NSCLC NCI-H23(I) CL1001,6.4
same,-Log (GI50),[2]; NSCLC NCI-H332M CL1017,5.5
same,-Log (GI50),[2]; NSCLC NCI-H460 CL1021,7.8
same,-Log (GI50),[2]; Ovarian IGROV1 CL6010,5.8
same,-Log (GI50),[2]; Ovarian OVCAR-3 CL6001,5.8
same,-Log (GI50),[2]; Ovarian OVCAR-4 CL6002,5.3
same,-Log (GI50),[2]; Ovarian OVCAR-5 CL6003,5.8
same,-Log (GI50),[2]; Ovarian OVCAR-8 CL6005,6.3
same,-Log (GI50),[2]; Ovarian SK-OV-3 CL6011,6.4
same,-Log (GI50),[2]; Prostate DU-145 CL11003,6.5
same,-Log (GI50),[2]; Prostate PC-3(I) CL11001,6.0
same,-Log (GI50),[2]; Renal 786-O CL9018,6.5
same,-Log (GI50),[2]; Renal A498 CL9013,6.4
same,-Log (GI50),[2]; Renal ACHN CL9023,6.8
same,-Log (GI50),[2]; Renal CAKI-1 CL9015,7.1
same,-Log (GI50),[2]; Renal RXF-393 CL9016,6.3
same,-Log (GI50),[2]; Renal SN12C CL9008,6.5
same,-Log (GI50),[2]; Renal TK10 CL9024,5.8
same,-Log (GI50),[2]; Renal UO-31 CL9004,5.4
